Source: US12611406B2, “Oxopiperazine derivatives for the treatment of cancer” (Inthera Bioscience AG, priority 2020, dated 2026)
Where two headings read alike, the source gives them in different places.

How the values were obtained:
[1] = 5-day daily oral repeated-dose pilot study in cynomolgus monkeys (mesylate salt); format: in vivo; conditions: for Tmax: all groups
Experimental: The objective of the study was to determine the TK profile of Compound 1 following its daily administration through oral gavage (po) for 5 days to cynomolgus monkeys.
Naïve male and female cynomolgus monkeys (2 animals/sex/group) were orally administered Compound 1 (mesylate salt) at dose levels of 8, 12 or 16 mg/kg/day for 5 consecutive days. The vehicle was 0.5% (w/v) methyl cellulose 400 in sterile water. For TK evaluation blood samples were collected from each animal on Days 1 and 5 at pre-dose, 15 min, 30 min, as well as 1, 2, 4, 6, 8, 12, and 24 hours post-dose.

[2] = Plasma protein binding, equilibrium dialysis; format: in vitro ADME, cynomolgus monkey; conditions: monkey plasma, 37° C, buffer pH 7.4; read-out: Fraction unbound (Fu), Mean
Experimental: Protein binding of Compound 1 to the plasma from several species, i.e., human, cynomolgus monkey, dog, rat, and mouse was investigated in vitro by incubation in plasma and determination of unbound fraction of Compound 1 using equilibrium dialysis. Compound 1 was incubated in 100% species-specific plasma and added to one side of the membrane in an equilibrium dialysis system while buffer (pH 7.4) is added to the other side. The system was allowed to reach equilibrium at 37° C. Compound concentration on both sides of the membrane is measured by liquid chromatography—tandem mass spectroscopy (LC-MS/MS).

SNU-16 = SNU-16 gastric cancer CDX mouse model; format: in vivo
Text: Left panel: Tumor growth curves. Right panel: Body weight development. […] QW: once weekly treatment. p.o.: per oral. QD: once daily treatment. BID: twice daily treatment. QW: once weekly treatment.
Values larger than 100% indicate tumor regression.

NCI-H209 = experiment: Caspase 3/7 activation (apoptosis); format: cell-based; design: key: “+” (present); “−” (absent); conditions: Rb x, p53 x
Text: (§1) It was noted that cancer cell lines that were growth inhibited at lower concentrations of Compound 1 more frequently responded to Compound 1 exposure with an apoptotic reaction (FIG. 2). Since PC cell lines were among the cancer cell types displaying a particularly high sensitivity to Compound 1 treatment (FIG. 1), the potentially underlying biological reasons for an apoptotic response were investigated in a set of PC cell lines consisting of DU-145, LNCaP, 22Rv1 and PC3 cells.
(§2) In table 1, “wt”=wild-type; “x”=cells harboring Rb and p53 deficiencies; “+” (present) or “−” (absent) indicate the arrest (i.e. accumulation) of cells in S-phase triggered by Compound 1, which coincided with accumulation of the DNA damage marker phosphorylated gamma H2AX (γH2AX; see FIG. 3A). These events are followed by activation of caspases 3 and 7 as indicators of cell apoptosis as indicated by “+” (present) or “−” (absent). In cancer cells with intact Rb and/or p53 functions (wt=wild-type), Compound 1 induced growth arrest but not a substantial increase of cells in S-phase (=S-phase arrest). Upon release of treatment, such cells are able to proliferate again.

SCLC-21H = experiment: Caspase 3/7 activation (apoptosis); format: cell-based; design: key: “+” (present); “−” (absent); conditions: Rb x, p53 x
Text: as §1, §2

Hut-78 = experiment: Caspase 3/7 activation (apoptosis); format: cell-based; design: key: “+” (present); “−” (absent); conditions: Rb x, p53 x
Text: as §1, §2

NCI-H660 = experiment: Caspase 3/7 activation (apoptosis); format: cell-based; design: key: “+” (present); “−” (absent); conditions: Rb x, p53 x
Text: as §1, §2

LNCaP = experiment: Caspase 3/7 activation (apoptosis); format: cell-based; design: key: “+” (present); “−” (absent); conditions: Rb wt, p53 wt
Text: as §1, §2

NCI-H146 = experiment: Caspase 3/7 activation (apoptosis); format: cell-based; design: key: “+” (present); “−” (absent); conditions: Rb x, p53 x
Text: as §1, §2

BT-549 = experiment: Caspase 3/7 activation (apoptosis); format: cell-based; design: key: “+” (present); “−” (absent); conditions: Rb x, p53 x
Text: as §1, §2

22Rv1 = experiment: Caspase 3/7 activation (apoptosis); format: cell-based; design: key: “+” (present); “−” (absent); conditions: Rb wt, p53 wt
Text: as §1, §2

PC3 = experiment: Caspase 3/7 activation (apoptosis); format: cell-based; design: key: “+” (present); “−” (absent); conditions: Rb wt, p53 x
Text: as §1, §2

Y-79 = experiment: Caspase 3/7 activation (apoptosis); format: cell-based; design: key: “+” (present); “−” (absent); conditions: Rb x, p53 wt
Text: as §1, §2

NCI-H69 = experiment: Caspase 3/7 activation (apoptosis); format: cell-based; design: key: “+” (present); “−” (absent); conditions: Rb x, p53 x
Text: as §1, §2

NCI-H82 = experiment: Caspase 3/7 activation (apoptosis); format: cell-based; design: key: “+” (present); “−” (absent); conditions: Rb x, p53 x
Text: as §1, §2

DU-145 = experiment: Caspase 3/7 activation (apoptosis); format: cell-based; design: key: “+” (present); “−” (absent); conditions: Rb x, p53 x
Text: as §1, §2

AR = experiment: AR-driven gene expression in LNCaP cells stimulated with DHT; format: cell-based; conditions: PSA (KLK3), TMPRSS2, SLC45A3; DHT induction; 30, 300, 3000 nM
Experimental: Compound 1 concentrations from left to right: 30, 300, 3000 nM. Basal level indicates expression level in cells with no DHT treatment.
In SCLC, the expression of p300 and CBP is associated with poor prognosis (see Gao et al, Int J Clin Exp Pathol. 2014 Jan. 15; 7(2):760-7) with high p300 and CBP expressions being independent prognostic markers of poor overall survival (OS) for resected SCLC patients.

Structure (SMILES): CC(C)C[C@@H]1NCCN([C@@H](CC(C)C)C(=O)N2CCC3(C[C@@H]2C)OCC(CN2CCCC2)CO3)C1=O (stereo partly drawn) [Compound 1, (S)-3-isobutyl-1-((S)-4-methyl-1-((S)-8-methyl-3-(pyrrolidin-1-ylmethyl)-1,5-dioxa-9-azaspiro[5.5]undecan-9-yl)-1-oxopentan-2-yl)piperazin-2-one]
- Total AUC ([1]; 8 mg/kg/day, Day 1): 0.085 µg·h/mL
- Total AUC ([1]; 8 mg/kg/day, Day 5): 0.175 µg·h/mL
- Total AUC ([1]; 12 mg/kg/day, Day 1): 0.106 µg·h/mL
- Total AUC ([1]; 12 mg/kg/day, Day 5): 0.329 µg·h/mL
- Total AUC ([1]; 16 mg/kg/day, Day 1): 0.351 µg·h/mL
- Total AUC ([1]; 16 mg/kg/day, Day 5): 0.561 µg·h/mL
- Cmax ([1]; both sexes, cynomolgus monkey, serum, po, 8 mg/kg/day, Day 1, read-out: Peak serum levels (Cmax)): 0.045 µg/mL
- Cmax ([1]; both sexes, cynomolgus monkey, serum, po, 8 mg/kg/day, Day 5, read-out: Cmax): 0.064 µg/mL
- Cmax ([1]; both sexes, cynomolgus monkey, serum, po, 12 mg/kg/day, Day 1, read-out: Peak serum levels (Cmax)): 0.042 µg/mL
- Cmax ([1]; both sexes, cynomolgus monkey, serum, po, 12 mg/kg/day, Day 5, read-out: Cmax): 0.072 µg/mL
- Cmax ([1]; both sexes, cynomolgus monkey, serum, po, 16 mg/kg/day, Day 1, read-out: Peak serum levels (Cmax)): 0.136 µg/mL
- Cmax ([1]; both sexes, cynomolgus monkey, serum, po, 16 mg/kg/day, Day 5, read-out: Cmax): 0.112 µg/mL
- Tmax ([1]; both sexes, cynomolgus monkey, serum, po, Day 1): 0.5 to 0.9 h
- Tmax ([1]; both sexes, cynomolgus monkey, serum, po, Day 5): 0.5 to 1.75 h
- half-life ([1]; both sexes, cynomolgus monkey, serum, po, all groups and time points, read-out: half-life (T1/2)): 5 to 7 h
- tolerability ([1]; oral 8, 12, and 16 mg/kg/day for 5 consecutive days, slight body weight loss, changes in hematology, urinalysis, clinical chemistry): tolerated
- fraction unbound [2]: 0.602
- Tumor growth inhibition (SNU-16; once weekly 60 mg/kg/day as 30 mg/kg BID, 6 weeks, p <0.001): 103% (<0.001)/**6 weeks
- anti-tumor efficacy, weekly vs daily (SNU-16; weekly 30 mg/kg BID compared to 3 mg/kg daily): comparable anti-tumor efficacy
- Caspase 3/7, 8 (NCI-H209): +
- Caspase 3/7, 8 (SCLC-21H): +
- Caspase 3/7, 8 (Hut-78): +
- Caspase 3/7 activation (NCI-H660): +
- Caspase 3/7, 8 (LNCaP): −
- Caspase 3/7, 8 (NCI-H146): +
- Caspase 3/7, 8 (BT-549): +
- Caspase 3/7, 8 (22Rv1): −
- Caspase 3/7, 8 (PC3): −
- Caspase 3/7, 8 (Y-79): −
- Caspase 3/7, 8 (NCI-H69): +
- Caspase 3/7, 8 (NCI-H82): +
- Caspase 3/7, 8 (DU-145): +
- AR target gene expression (AR): effectively downregulates target genes
